Experimental data as given in PubChem BioAssay (NCI).
Values joined by “and” are separate entries in the source; they are usually repeats but may differ in a detail not shown here. Equal entries are not always repeated.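 Cells were grown in 96-well plates and exposed to each compound for 48 hours at five concentrations; endpoints were interpolated linearly between bracketing concentrations, or set to the highest concentration if not reached. Abbreviation: GI50, concentration required for 50% inhibition of growth. TGI: concentration producing complete growth inhibition.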

Tests used:
Test in all cases: NCI tumour cell line growth inhibition, 48 h
HOP-92 NSCLC = test system: HOP-92 NSCLC
KM12 colon = test system: KM12 colon
MOLT-4 leukemia = test system: MOLT-4 leukemia
SK-MEL-5 melanoma = test system: SK-MEL-5 melanoma
SK-OV-3 ovarian = test system: SK-OV-3 ovarian
SNB-19 CNS = test system: SNB-19 CNS
TK-10 renal = test system: TK-10 renal
U251 CNS = test system: U251 CNS
UO-31 renal = test system: UO-31 renal
NCI-H226 lung = test system: NCI-H226 lung

Row | SMILES | GI50 (HOP-92 NSCLC) | TGI (HOP-92 NSCLC) | GI50 (KM12 colon) | TGI (KM12 colon) | GI50 (MOLT-4 leukemia) | TGI (MOLT-4 leukemia) | GI50 (SK-MEL-5 melanoma) | TGI (SK-MEL-5 melanoma) | GI50 (SK-OV-3 ovarian) | TGI (SK-OV-3 ovarian) | GI50 (SNB-19 CNS) | TGI (SNB-19 CNS) | GI50 (TK-10 renal) | TGI (TK-10 renal) | GI50 (U251 CNS) | TGI (U251 CNS) | GI50 (UO-31 renal) | TGI (UO-31 renal) | TGI (NCI-H226 lung) | GI50 (NCI-H226 lung)
1 | CCCCn1sc(=O)n(Cc2ccc(CNC(=O)OCc3ccc4c(Br)cc(Br)c(O)c4n3)cc2)c1=O | 1.41 µM | > 100 µM | 0.374 µM | > 24.4 µM | 0.895 µM | > 100 µM | 0.55 µM | 2.07 µM | 1.72 µM | > 100 µM | 2.66 µM | > 100 µM | > 51.5 µM | > 100 µM | 0.659 µM | > 100 µM | 1.05 µM | > 100 µM | – | –
2 | NC(=O)/C=C/NC(=O)/C=N\O | – | > 100 µM | – | > 100 µM | – | > 100 µM | – | > 100 µM | – | > 100 µM | – | > 100 µM | – | – | – | > 100 µM | – | > 100 µM | > 100 µM | –
3 | O=C1C2c3[nH]c4ccccc4c3[C@@H]3CCCCC3C2C(=O)N1c1ccccc1 (some centres not stated) | – | – | – | 39.3 µM | – | 62.9 µM | – | 32.1 µM | – | 72.5 µM | – | > 100 µM | – | 68.7 µM | – | 28 µM | – | 45 µM | 42.2 µM | –
4 | O=C(CC(=O)C1CCOC1=O)C(=O)Nc1ccc(Cl)cc1Cl (configuration not stated) | – | > 100 µM | – | > 100 µM | – | – | – | > 100 µM | – | > 100 µM | – | > 100 µM | – | > 100 µM | – | > 100 µM | – | > 100 µM | > 100 µM | –
5 | O=C1C(Cl)=C(Nc2cccc(O)c2)C(=O)N1c1ccccc1Cl | – | – | 59.5 µM | > 100 µM | 15.8 µM | 38.1 µM | 18.8 µM | 65.6 µM | 49.9 µM | > 100 µM | 40.6 µM | > 100 µM | – | – | 33.3 µM | > 100 µM | 32.5 µM | > 100 µM | 49.6 µM | 17 µM
6 | CCCCCCCCCCCCN(O)C(=O)c1ccccc1 | – | 71.8 µM | – | > 100 µM | – | > 100 µM | – | – | – | 92.1 µM | – | > 100 µM | – | > 100 µM | – | 29.8 µM | – | > 100 µM | – | –
7 | CN(C)c1ccc(/C=N\N2C(=O)c3ccccc3C2=O)cc1 | – | > 100 µM | – | > 100 µM | – | > 100 µM | – | > 100 µM | – | – | – | > 100 µM | – | > 100 µM | – | – | – | > 100 µM | > 100 µM | –
8 | CC/C(C)=C1\OC(=O)C(C)C(O)C(Cc2cccnc2)NC(=O)C(NC(=O)c2ncccc2O)C(C)OC1=O (configuration not stated) | – | – | – | > 100 µM | – | > 100 µM | – | > 100 µM | – | > 100 µM | – | > 100 µM | – | > 100 µM | – | > 100 µM | – | – | – | –
9 | Nc1nc(N)c2nc(CNc3ccc(C(=O)NC(CCCNC(=O)c4ccccc4C(=O)O)C(=O)O)cc3)cnc2n1 (configuration not stated) | < 0.01 µM and 0.0274 µM | – | < 0.01 µM and 0.00297 µM | > 100 µM | 0.00353 µM | > 100 µM | 0.00577 µM | > 100 µM | – | – | – | > 100 µM | 0.031 µM | > 100 µM | – | > 100 µM | 0.00532 µM | > 100 µM | > 100 µM | > 100 µM
10 | COC12CC(=O)C(C(C)=O)=C(O)C1(C)c1c(OC(C)=O)c(C)c(O)c(C(C)=O)c1O2 (configuration not stated) | – | 52 µM | – | > 100 µM | – | > 100 µM | – | – | – | – | – | > 100 µM | – | 69.7 µM | – | > 100 µM | – | 33 µM | 65.7 µM | –
